Test results published in patent US20110021547A1, “Substantially Pure and a Stable Crystalline Form of Bosentan” (ACTAVIS GROUP PTC EHF, priority 2008, published 2011).
Read-outs that look alike come from different tables or passages of the source.

Experiments:
[1] = cited from earlier work
[2] = Tapped density; assay type: physicochemical
[3] = Particle size distribution by laser diffraction (Malvern Master Sizer 2000); assay type: physicochemical
Source text: As used herein, DX means that X percent of the particles have a diameter less than a specified diameter D. Thus, a D90 or d(0.9) of less than 300 microns means that 90 volume-percent of the micronized particles in a composition have a diameter less than 300 microns.
As used herein, “Particle Size Distribution (P.S.D)” means the cumulative volume size distribution of equivalent spherical diameters as determined by laser diffraction in Malvern Master Sizer 2000 equipment or its equivalent. “Mean particle size distribution, i.e., D50” correspondingly, means the median of said particle size distribution.

[4] = Storage stability of crystalline form A5 (temperature / relative humidity); assay type: physicochemical
Protocol: The term “remains stable”, as defined herein, refers to lack of formation of impurities, while being stored as described herein. The stability of crystalline form A5 is measured by maintaining crystalline form A5 at a temperature of about 40° C. at a relative humidity of about 75% for at least about 1 month, specifically for a period of 6 months, or at a temperature of about 25° C. at a relative humidity of about 60% for at least about 6 months.

[5] = Polymorphic stability of form A5 after compression or particle size reduction; assay type: physicochemical
Protocol: The X-Ray powder diffraction was measured by an X-ray powder Diffractometer equipped with a Cu-anode (λ=1.54 Angstrom), X-ray source operated at 40 kV, 40 mA and a Ni filter is used to strip K-beta radiation. Two-theta calibration is performed using an NIST SRM 1976, Corundum standard. The sample was analyzed using the following instrument parameters: measuring range=3-45° 2θ; step width=0.01579°; and measuring time per step=0.11 second.

Structure (SMILES): COc1ccccc1Oc1c(NS(=O)(=O)c2ccc(C(C)(C)C)cc2)nc(-c2ncccn2)nc1OCCO [Bosentan, p-tert-butyl-N-[6-(2-hydroxyethoxy)-5-(2-methoxyphenoxy)-2-(2-pyrimidinyl)-4-pyrimidinyl]benzenesulfonamide monohydrate]
- solubility in aqueous solution at low pH ([1]; pH 1.1): 0.1 mg/100 ml
- solubility in aqueous solution at low pH ([1]; pH 4.0): 0.1 mg/100 ml
- solubility in aqueous solution at low pH ([1]; pH 5.0): 0.2 mg/100 ml
- solubility in water ([1]; water): 1.0 mg/100 ml

Structure (SMILES): COc1ccccc1Oc1c(NS(=O)(=O)c2ccc(C(C)(C)C)cc2)nc(-c2ncccn2)nc1OCCO [Example 3, Bosentan]
- Tapped density [2]: 0.668 g/mL

Structure (SMILES): COc1ccccc1Oc1c(NS(=O)(=O)c2ccc(C(C)(C)C)cc2)nc(-c2ncccn2)nc1OCCO [Example 4, Bosentan]
- Tapped density [2]: 0.714 g/mL

Structure (SMILES): COc1ccccc1Oc1c(NS(=O)(=O)c2ccc(C(C)(C)C)cc2)nc(-c2ncccn2)nc1OCCO [Example 5, Bosentan]
- Tapped density [2]: 0.626 g/mL

Structure (SMILES): COc1ccccc1Oc1c(NS(=O)(=O)c2ccc(C(C)(C)C)cc2)nc(-c2ncccn2)nc1OCCO [Example 6, Bosentan]
- Tapped density [2]: 0.667 g/mL

Structure (SMILES): COc1ccccc1Oc1c(NS(=O)(=O)c2ccc(C(C)(C)C)cc2)nc(-c2ncccn2)nc1OCCO [Example 7, Bosentan]
- Particle Size Distribution d(0.1) [3]: 13.39 microns
- Particle Size Distribution d(0.5) [3]: 85.61 microns
- Particle Size Distribution d(0.9) [3]: 231.09 microns

Structure (SMILES): COc1ccccc1Oc1c(NS(=O)(=O)c2ccc(C(C)(C)C)cc2)nc(-c2ncccn2)nc1OCCO [Example 8, Bosentan]
- Particle Size Distribution d(0.9) [3]: less than 60 microns

Structure (SMILES): COc1ccccc1Oc1c(NS(=O)(=O)c2ccc(C(C)(C)C)cc2)nc(-c2ncccn2)nc1OCCO [Example 9, Bosentan]
- Particle Size Distribution d(0.9) [3]: less than 130 microns

Structure (SMILES): COc1ccccc1Oc1c(NS(=O)(=O)c2ccc(C(C)(C)C)cc2)nc(-c2ncccn2)nc1OCCO [Example 9A, Bosentan]
- Particle Size Distribution d(0.5) [3]: 28.95 microns
- Particle Size Distribution d(0.9) [3]: 120.88 microns

Structure (SMILES): COc1ccccc1Oc1c(NS(=O)(=O)c2ccc(C(C)(C)C)cc2)nc(-c2ncccn2)nc1OCCO [Example 9B, Bosentan]
- Particle Size Distribution d(0.1) [3]: 11.76 microns
- Particle Size Distribution d(0.5) [3]: 38.96 microns
- Particle Size Distribution d(0.9) [3]: 78.25 microns

Structure (SMILES): COc1ccccc1Oc1c(NS(=O)(=O)c2ccc(C(C)(C)C)cc2)nc(-c2ncccn2)nc1OCCO [Example 9C, Bosentan]
- Particle Size Distribution d(0.1) [3]: 7.89 microns
- Particle Size Distribution d(0.5) [3]: 31.92 microns
- Particle Size Distribution d(0.9) [3]: 69.43 microns

Structure (SMILES): COc1ccccc1Oc1c(NS(=O)(=O)c2ccc(C(C)(C)C)cc2)nc(-c2ncccn2)nc1OCCO [Example 9D, Bosentan]
- Particle Size Distribution d(0.1) [3]: 14.85 microns
- Particle Size Distribution d(0.5) [3]: 53.73 microns
- Particle Size Distribution d(0.9) [3]: 109.61 microns

Structure (SMILES): COc1ccccc1Oc1c(NS(=O)(=O)c2ccc(C(C)(C)C)cc2)nc(-c2ncccn2)nc1OCCO [Example 9E, Bosentan]
- Particle Size Distribution d(0.1) [3]: 17.03 microns
- Particle Size Distribution d(0.5) [3]: 58.84 microns
- Particle Size Distribution d(0.9) [3]: 127.11 microns

Structure (SMILES): COc1ccccc1Oc1c(NS(=O)(=O)c2ccc(C(C)(C)C)cc2)nc(-c2ncccn2)nc1OCCO [bosentan crystalline form A5, Bosentan]
- stability on storage, tendency to convert to other forms ([4]; about 25° C., relative humidity about 60%, at least about 6 months): more stable
- crystalline form and stability on storage ([4]; about 25±2° C., relative humidity about 60±5%, 6 months): remains in the same crystalline form and stable
- crystalline form and stability on storage ([4]; about 25±2° C., relative humidity about 60±5%, at least one month): remains in the same crystalline form and stable
- stability on storage, tendency to convert to other forms ([4]; about 40° C., relative humidity about 75%, at least about 1 month, specifically 6 months): more stable
- crystalline form and stability on storage ([4]; about 40±2° C., relative humidity about 75±5%, 6 months): remains in the same crystalline form and stable
- crystalline form and stability on storage ([4]; about 40±2° C., relative humidity about 75±5%, at least one month): remains in the same crystalline form and stable
- crystalline form and stability after mechanical particle size reduction ([5]; cutting, chipping, crushing, milling, grinding, micronizing): remains in the same crystalline faun and stable
- crystalline form and stability after compression ([5]; pressure of about 7.5 tons/cm^2 for 10 to 15 minutes, checked by X-ray diffractometer): remains in the same crystalline form and stable
